Assay results reported in patent US20140221498A1, “AMINO DIOL DERIVATIVES AS SPHINGOSINE 1-PHOSPHATE (S1P) RECEPTOR MODULATORS” (ALLERGAN, INC., priority 2013, published 2014).

Molecular target: T1, human S1P1 receptor (Homo sapiens, UniProt P21453)
T1 construct: expressed in transfected cells; membranes used
Assay: GTP γ35S binding assay for S1P1 activity
Format: biochemical
Conditions: membranes of cells stably expressing the S1P1 receptor, test compounds 0.08 to 5,000 nM, 30 min at 25° C.
Description: Compounds were synthesized and tested for S1P1 activity using the GTP γ^35S binding assay. These compounds may be assessed for their ability to activate or block activation of the human S1P1 receptor in cells stably expressing the S1P1 receptor.
GTP γ^35S binding was measured in the medium containing (mM) HEPES 25, pH 7.4, MgCl2 10, NaCl 100, dithitothreitol 0.5, digitonin 0.003%, 0.2 nM GTP γ^35S, and 5 μg membrane protein in a volume of 150 μl. Test compounds were included in the concentration range from 0.08 to 5,000 nM unless indicated otherwise. Membranes were incubated with 100 μM 5′-adenylylimmidodiphosphate for 30 min, and subsequently with 10 μM GDP for 10 min on ice. Drug solutions and membrane were mixed, and then reactions were initiated by adding GTP γ^35S and continued for 30 min at 25° C. Reaction mixtures were filtered over Whatman GF/B filters under vacuum, and washed three times with 3 mL of ice-cold buffer (HEPES 25, pH7.4, MgCl2 10 and NaCl 100). Filters were dried and mixed with scintillant, and counted for ^35S activity using a β-counter. Agonist-induced GTP γ^35S binding was obtained by subtracting that in the absence of agonist. Binding data were analyzed using a non-linear regression method. In case of antagonist assay, the reaction mixture contained 10 nM S1P in the presence of test antagonist at concentrations ranging from 0.08 to 5000 nM.

T1 sequence (P21453 whole entry): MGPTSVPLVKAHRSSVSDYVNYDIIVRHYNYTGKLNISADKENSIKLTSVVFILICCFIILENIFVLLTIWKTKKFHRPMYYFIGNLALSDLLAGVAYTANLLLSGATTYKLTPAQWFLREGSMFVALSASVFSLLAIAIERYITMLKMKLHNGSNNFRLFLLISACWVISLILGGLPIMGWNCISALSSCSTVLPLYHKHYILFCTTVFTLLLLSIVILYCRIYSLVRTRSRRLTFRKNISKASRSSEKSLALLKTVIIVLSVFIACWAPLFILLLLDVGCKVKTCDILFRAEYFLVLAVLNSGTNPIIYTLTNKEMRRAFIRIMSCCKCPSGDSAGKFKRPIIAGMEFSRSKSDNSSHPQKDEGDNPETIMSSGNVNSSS

Question: How did the EC50 turn out when `Cc1ccc(CC(CCCOc2ccc(CCC(N)(CO)CO)cc2)c2cc(F)cc(F)c2)cc1C` (stereo not drawn) [Compound 1, 2-amino-2-[2-(4-{[4-(3,5-difluorophenyl)-5-(3,4-dimethylphenyl)pentyl]oxy}phenyl)ethyl]propane-1,3-diol] was run?
Answer: 0.0151 µM

Question: Which EC50 does the source give for `Cc1ccc(CC(CCCOc2ccc(CCC(N)(CO)CO)cc2)c2cccc(F)c2)cc1C` (stereo not drawn) [Compound 2, 2-amino-2-[2-(4-{[5-(3,4-dimethylphenyl)-4-(3-fluorophenyl)pentyl]oxy}phenyl)ethyl]propane-1,3-diol] here?
Answer: 0.042 µM

Question: How did the EC50 turn out when `Cc1ccc(CC(CCCOc2ccc(CCC(N)(CO)CO)cc2)c2cccc(Cl)c2)cc1C` (stereo not drawn) [Compound 3, 2-amino-2-[2-(4-{[4-(3-chlorophenyl)-5-(3,4-dimethylphenyl)pentyl]oxy}phenyl)ethyl]propane-1,3-diol] was run?
Answer: 0.0924 µM
